Paper PMC5063977 (The Journal of Biological Chemistry, 2016)

Key:
[1] = biological target: T1, RAMP1-CLR (CGRP receptor) (Homo sapiens, UniProt O60894+Q16602); assay: S. cerevisiae growth assay, GPA1/Gαi chimera, RAMP1 + CLR; assay type: cell-based; conditions: percentage of yeast strain MMY11 (lacking GPA1); 20 h; mean ± S.E., n = 6
T1 construct: FLAG; expressed in transfected cells; host or cells: HEK-293 or HEK-293S cells, transient transfection, 1:1 RAMP:CLR
Experimental: FIGURE 3. […] Reporter gene activity was determined following 20 h of stimulation.
General yeast procedures were performed as described previously ([22], [24]). The human CLR was introduced into yeast cells under the control of the PGK promoter using a plasmid containing ura3 (pDT-PGK). The three human RAMPs were introduced into yeast under the control of the GAPDH promoter using plasmids containing leu2 (p425-GPD) ([25]). S. cerevisiae dual reporter strains expressing chimeras of yeast GPA1(1–467) (GPA1/Gα) with the five C-terminal amino acids of […] human G proteins representing Gαs, Gα16, Gαq, Gαo, Gαi1/2, Gαi3, Gαz, Gα12, Gα13, and Gα14 (MMY84–MMY93) were used in this study ([52]). […] Receptor signaling was measured using the yeast growth assay as described previously ([24]). […] A fluorescein signal was detected as an increase in fluorescence (excitation wavelength = 485 nm, emission wavelength = 535 nm) as a measure of growth. Different concentrations of ligand (0.01 nM–100 μM) were assayed using 96-well plates, and fluorescence was detected using a Tecan Infinite M200 microplate reader (Tecan Ultra Evolution, Reading, UK) or a Mithras LB 940 microplate reader (Berthold Technologies, Harpenden, UK) for 20 h. […]

[2] = biological target: T1, RAMP1-CLR (CGRP receptor); assay: cAMP accumulation, HEK-293 cells, RAMP1 + CLR; assay type: cell-based; conditions: mean ± S.E.
Experimental: HEK-293 cells were transfected with FuGENE 6 (Roche Applied Science) in accordance with the manufacturer's instructions using a 1:3 (w:v) DNA:FuGENE ratio and a 1:1 ratio of RAMP to CLR. […] The transfected cell lines were grown for 24–48 h prior to assaying.
The transfected HEK-293 cells were washed in PBS, resuspended in stimulation buffer (PBS containing 0.1% BSA and 0.5 mM IBMX), and seeded at 2000 cells/well in 384-well white Optiplates. Ligands were added in the range of 1 pM to 1 mM, and cAMP accumulation was measured after 30 min of stimulation using a LANCE® cAMP detection kit (PerkinElmer Life Sciences). […] Plates were read using a Mithras LB 940 multimode microplate reader (Berthold Technologies). […] Values were converted to concentration using a cAMP standard curve performed in parallel.
Data analysis for cAMP assays was performed in GraphPad Prism 6.0f (San Diego, CA). Data were fitted to obtain concentration-response curves using either the three-parameter logistic equation (for pEC50 values) or the operational model for partial agonism ([34]) to obtain values of efficacy (log τ) and the equilibrium dissociation constant (log Ka). These values were then used to quantify signaling bias as change in log (τ/Ka) relative to the natural cognate ligand for the respective receptor ([41]). […] Statistical differences were analyzed using one-way ANOVA or Student's t test as appropriate with post hoc Bonferroni's or Dunnett's multiple comparisons, and p < 0.05 was considered significant. […] For RT-PCR, normalization to the internal standard GAPDH was performed to reduce variance and enable a comparison between different cell lines. To quantitate the ligand-dependent response in the yeast system, a strain lacking GPA1 (MMY11), grown in rich medium, was used as a standard ([72]). As GPA1 is not present in this strain, the Gβγ subunits are unregulated and free to signal, allowing us to determine the maximal response of our system. […] For the mammalian cell-based assays, data analysis was carried out as for the yeast curves. […]

T1 sequence (Q16602 23-461): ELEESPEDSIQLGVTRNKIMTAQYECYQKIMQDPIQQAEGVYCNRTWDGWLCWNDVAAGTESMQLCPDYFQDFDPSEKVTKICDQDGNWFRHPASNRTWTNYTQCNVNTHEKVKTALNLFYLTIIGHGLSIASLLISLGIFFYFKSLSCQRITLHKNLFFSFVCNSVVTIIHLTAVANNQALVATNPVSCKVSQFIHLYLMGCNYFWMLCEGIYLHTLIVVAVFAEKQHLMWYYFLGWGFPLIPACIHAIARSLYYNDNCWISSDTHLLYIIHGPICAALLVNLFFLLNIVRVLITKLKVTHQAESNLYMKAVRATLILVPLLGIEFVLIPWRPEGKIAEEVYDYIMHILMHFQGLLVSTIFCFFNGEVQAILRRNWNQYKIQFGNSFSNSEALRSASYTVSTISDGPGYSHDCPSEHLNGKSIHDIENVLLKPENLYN
T1 sequence (O60894 27-148): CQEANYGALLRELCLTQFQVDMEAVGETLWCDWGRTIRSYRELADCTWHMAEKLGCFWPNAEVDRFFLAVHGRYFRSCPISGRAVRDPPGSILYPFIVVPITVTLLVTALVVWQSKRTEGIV

Compound	Emax [1] [%]	Emax ([2]; HEK293, PTX treated (200 ng/ml, 16 h), percentage of maximal cAMP with 100 μM forskolin in presence of PTX, n = 6 (Table 3)) [%]	Emax ([2]; HEK293, percentage of maximal cAMP with 100 μM forskolin, HEK-293, 30 min, n = 11 (Table 2)) [%]	Emax ([2]; HEK293, untreated, percentage of maximal cAMP with 100 μM forskolin in presence of PTX, n = 9 (Table 3)) [%]
CSCC[C@H](NC(=O)[C@H](CC(C)C)NC(=O)[C@H](CCC(N)=O)NC(=O)[C@H](Cc1c[nH]c2ccccc12)NC(=O)[C@H](CC(C)C)NC(=O)[C@H](CCCNC(=N)N)NC(=O)[C@H](Cc1c[nH]cn1)NC(=O)[C@H](CO)NC(=O)[C@H](CC(C)C)NC(=O)[C@H](CC(N)=O)NC(=O)[C@H](CCC(N)=O)NC(=O)[C@@H](NC(=O)[C@H](CCC(N)=O)NC(=O)[C@@H]1CSSC[C@H](NC(=O)CNC(=O)[C@@H](NC(=O)[C@H](CCCNC(=N)N)NC(=O)[C@H](CC(C)C)NC(=O)[C@H](CC(C)C)NC(=O)[C@H](CCC(N)=O)NC(=O)[C@H](C)NC(=O)[C@H](CCC(N)=O)NC(=O)[C@@H](N)[C@@H](C)O)C(C)C)C(=O)N[C@@H](C(C)C)C(=O)N[C@@H](CC(C)C)C(=O)NCC(=O)N[C@@H]([C@@H](C)O)C(=O)N1)C(C)C)C(=O)NCC(=O)N1CCC[C@H]1C(=O)N[C@@H](C)C(=O)NCC(=O)N[C@@H](CCCNC(=N)N)C(=O)N[C@@H](CCC(N)=O)C(=O)N[C@@H](CC(=O)O)C(=O)N[C@@H](CO)C(=O)N[C@@H](C)C(=O)N1CCC[C@H]1C(=O)N[C@H](C(=O)N[C@@H](CC(=O)O)C(=O)N1CCC[C@H]1C(=O)N[C@@H](CO)C(=O)N[C@@H](CO)C(=O)N1CCC[C@H]1C(=O)N[C@@H](Cc1c[nH]cn1)C(=O)N[C@@H](CO)C(=O)N[C@@H](Cc1ccc(O)cc1)C(N)=O)C(C)C [AM2, adrenomedullin 2]	41.5 ± 3.3			
CC[C@H](C)[C@H](NC(=O)[C@H](CCC(N)=O)NC(=O)[C@H](Cc1c[nH]cn1)NC(=O)[C@H](C)NC(=O)[C@H](CC(C)C)NC(=O)[C@H](CCCCN)NC(=O)[C@H](CCC(N)=O)NC(=O)[C@@H](NC(=O)[C@@H](NC(=O)[C@@H]1CSSC[C@H](NC(=O)CNC(=O)[C@H](Cc2ccccc2)NC(=O)[C@H](CO)NC(=O)[C@H](CCCNC(=N)N)NC(=O)[C@H](CC(C)C)NC(=O)CNC(=O)[C@H](CCC(N)=O)NC(=O)[C@H](Cc2ccccc2)NC(=O)[C@H](CC(N)=O)NC(=O)[C@H](CC(N)=O)NC(=O)[C@H](CCSC)NC(=O)[C@H](CO)NC(=O)[C@H](CCC(N)=O)NC(=O)[C@H](CCCNC(=N)N)NC(=O)[C@@H](N)Cc2ccc(O)cc2)C(=O)N[C@@H](CCCNC(=N)N)C(=O)N[C@@H](Cc2ccccc2)C(=O)NCC(=O)N[C@@H]([C@@H](C)O)C(=O)N1)[C@@H](C)O)C(C)C)C(=O)N[C@@H](Cc1ccc(O)cc1)C(=O)N[C@@H](CCC(N)=O)C(=O)N[C@@H](Cc1ccccc1)C(=O)N[C@H](C(=O)N[C@@H](CC(=O)O)C(=O)N[C@@H](CCCCN)C(=O)N[C@@H](CC(=O)O)C(=O)N[C@@H](CCCCN)C(=O)N[C@@H](CC(=O)O)C(=O)N[C@@H](CC(N)=O)C(=O)N[C@H](C(=O)N[C@@H](C)C(=O)N1CCC[C@H]1C(=O)N[C@@H](CCCNC(=N)N)C(=O)N[C@@H](CO)C(=O)N[C@@H](CCCCN)C(=O)N[C@H](C(=O)N[C@@H](CO)C(=O)N1CCC[C@H]1C(=O)N[C@@H](CCC(N)=O)C(=O)NCC(=O)N[C@@H](Cc1ccc(O)cc1)C(N)=O)[C@@H](C)CC)C(C)C)[C@@H](C)O [AM, adrenomedullin]	34.2 ± 3.7	72.2 ± 1.7	45.2 ± 3.7	48.1 ± 2.5
